Source: patent US9169209B2, “Compounds and compositions for the inhibition of NAMPT” (FORMA TM, LLC, priority 2011, dated 2015)
Read-outs that look alike come from different tables or passages of the source.

Legend:
NAMPT = NAMPT (Homo sapiens (Human), UniProt P43490); assay: Biochemical Inhibition Assay (NAMPT enzymatic reaction, NMN quantified by mass spectrometry); settings: recombinant His-tagged NAMPT, 33 nM; 1 μM NAM; read-out: Biochem IC50
Method: Recombinant His-tagged NAMPT was produced in E. coli cells, purified over a Ni column, and further purified over a size-exclusion column by XTAL Biostructures.
The NAMPT enzymatic reactions were carried out in Buffer A (50 mM Hepes pH 7.5, 50 mM NaCl, 5 mM MgCl2, and 1 mM THP) in 96-well V-bottom plates. The compound titrations were performed in a separate dilution plate by serially diluting the compounds in DMSO to make a 100× stock. […] The compound and enzyme mix was incubated for 15 minutes at room temperature, then 10 μL of 10× substrate and co-factors in Buffer A were added to the test well to make a final concentration of 1 μM NAM, 100 μM 5-Phospho-D-ribose 1-diphosphate (PRPP), and 2.5 mM Adenosine 5′-triphosphate (ATP). The reaction was allowed to proceed for 30 minutes at room temperature, then was quenched with the addition of 11 μL of a solution of formic acid and L-Cystathionine to make a final concentration of 1% formic acid and 10 μM L-Cystathionine. Background and signal strength was determined by addition (or non-addition) of a serial dilution of NMN to a pre-quenched enzyme and cofactor mix.
A mass spectrometry-based assay was used to measure the NAMPT reaction product (NMN) and the internal control (L-Cystathionine). NMN and L-Cystathionine were detected using the services of Biocius Lifesciences with the RapidFire system. In short, the NMN and L-Cystathionine are bound to a graphitic carbon cartridge in 0.1% formic acid, eluted in 30% acetonitrile buffer, and injected into a Sciex 4000 mass spectrometer. The components of the sample were ionized with electrospray ionization and the positive ions were detected. […] The fragments are quantified and the analyzed by the following method.
First the NMN signal is normalized to the L-Cystathionine signal by dividing the NMN signal by the L-Cystathionine signal for each well. The signal from the background wells are averaged and subtracted from the test plates.
Wherein x denotes the average signal of the compound treated wells and y denotes the average signal of the DMSO treated wells.
IC50s are Determined Using Excel and this Formula.
Wherein X denotes the compound concentration 1, Y denotes the compound concentration 2, XX denotes the % inhibition at compound concentration 1 (X), and YY denotes the % inhibition at compound concentration 2 (Y).

A2780 cells = assay: In-Vitro Cell Proliferation Assay (SRB, 72 hours); type: cell-based; settings: read-out: A2780 IC50
Method: After overnight incubation at 37° C. and 5% CO2, the compound titrations were performed in a separate dilution plate by serially diluting the compounds in DMSO to make a 1000× stock. The compounds were then further diluted to 10× final concentration in culture media, whereupon 20 μL of each dilution was added to the plated cells with controls (e.g. DMSO and blank) to make a final volume of 200 μL. The final DMSO concentration in each well was 0.1%. The plates were then incubated for 72 hours at 37° C. in a 5% CO2 incubator. The number of viable cells was then assessed using sulforhodamine B (SRB) assay. Cells were fixed at 4° C. for 1 hour with the addition of 50 μL 30% trichloroacetic acid (TCA) to make a final concentration of 6% TCA. The plates were washed four times with H2O and allowed to dry for at least 1 hour, whereupon 100 μL of a 4% SRB in 1% acetic acid solution was added to each well and incubated at room temperature for at least 30 minutes. The plates were then washed three times with 1% acetic acid, dried, and treated with 100 μL of 10 mM Tris-Base solution. The plates were then read in a microplate reader at an absorbance of 570 nm. Background was generated on a separate plate with media only.
First, the signals from the background plate are averaged and then the background was subtracted from the test plates.
wherein x denotes the average signal of the compound-treated cells and y denotes the average signal of the DMSO-treated cells.
wherein X denotes the compound concentration 1, Y denotes the compound concentration 2, XX denotes the % inhibition at compound concentration 1 (X), and YY denotes the % inhibition at compound concentration 2 (Y).

[1] = Homo sapiens, A2780, 72 h, A2780 cells, 72 hours, sulforhodamine B

Sequence of NAMPT (P43490 whole entry): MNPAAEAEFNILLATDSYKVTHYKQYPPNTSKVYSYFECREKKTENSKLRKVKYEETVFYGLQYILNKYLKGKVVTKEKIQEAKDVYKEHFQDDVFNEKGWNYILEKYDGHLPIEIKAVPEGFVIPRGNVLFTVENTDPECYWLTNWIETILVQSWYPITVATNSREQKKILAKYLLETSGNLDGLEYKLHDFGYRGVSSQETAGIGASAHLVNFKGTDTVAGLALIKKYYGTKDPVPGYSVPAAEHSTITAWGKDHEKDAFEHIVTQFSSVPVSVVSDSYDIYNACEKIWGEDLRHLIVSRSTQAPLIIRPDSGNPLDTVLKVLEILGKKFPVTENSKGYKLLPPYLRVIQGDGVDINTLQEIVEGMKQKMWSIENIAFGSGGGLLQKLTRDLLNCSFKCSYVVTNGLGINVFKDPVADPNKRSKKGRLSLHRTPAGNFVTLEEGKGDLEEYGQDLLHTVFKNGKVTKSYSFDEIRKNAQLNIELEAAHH

| SMILES | IC50 (NAMPT) [µM] | IC50 (A2780 cells; [1]) [µM] | IC50 (A2780 cells; A2780 cells, 72 hours, sulforhodamine B) [µM] | IC50 (A2780 cells; Homo sapiens, A2780, 72 h) [µM] |
| --- | --- | --- | --- | --- |
| O=C(/C=C/c1cccnc1)Nc1ccc(S(=O)(=O)c2cccc3ccccc23)cc1 [(2E)-N-[4-(naphthalene-1-sulfonyl)phenyl]-3-(pyridin-3-yl)prop-2-enamide] | 0.0042 | 0.0181 | – | – |
| O=C(/C=C/c1cccnc1)Nc1ccc(S(=O)(=O)c2cccc3c2Oc2ccccc2S3)cc1 [(2E)-N-[4-(phenoxathiine-4-sulfonyl)phenyl]-3-(pyridin-3-yl)prop-2-enamide] | 0.0072 | 0.0501 | – | – |
| O=C(/C=C/c1cccnc1)NCc1ccc(S(=O)(=O)N2CC3CCC(C2)O3)cc1 [(2E)-N-[(4-{8-oxa-3-azabicyclo[3.2.1]octane-3-sulfonyl}phenyl)methyl]-3-(pyridin-3-yl)prop-2-enamide] | 0.003 | 0.386 | – | – |
| CN(C)c1ncc(S(=O)(=O)c2ccc(NC(=O)/C=C/c3cccnc3)cc2)cn1 [(2E)-N-{4-[2-(dimethylamino)pyrimidine-5-sulfonyl]phenyl}-3-(pyridin-3-yl)prop-2-enamide] | 0.0079 | 0.0731 | – | – |
| O=C(/C=C/c1cccnc1)Nc1ccc(S(=O)(=O)N2CCC(N3CCOCC3)CC2)cc1 [(2E)-N-{4-[4-(morpholin-4-yl)piperidine-1-sulfonyl]phenyl}-3-(pyridin-3-yl)prop-2-enamide] | 0.01 | 0.21 | – | – |
| CN(C)c1ccc(S(=O)(=O)c2ccc(NC(=O)/C=C/c3cccnc3)cc2)cn1 [(2E)-N-{4-[6-(dimethylamino)pyridine-3-sulfonyl]phenyl}-3-(pyridin-3-yl)prop-2-enamide] | 0.0051 | 0.0781 | – | – |
| O=C(/C=C/c1cccnc1)Nc1ccc(S(=O)(=O)c2cc(Cl)ccc2Cl)cc1 [(2E)-N-{4-[(2,5-dichlorobenzene)sulfonyl]phenyl}-3-(pyridin-3-yl)prop-2-enamide] | 0.0224 | 0.1 to 1 | – | – |
| COc1ccc(C)cc1S(=O)(=O)c1ccc(NC(=O)/C=C/c2cccnc2)cc1 [(2E)-N-{4-[(2-methoxy-5-methylbenzene)sulfonyl]phenyl}-3-(pyridin-3-yl)prop-2-enamide] | 0.0018 | 0.0073 | – | – |
| COc1ccccc1S(=O)(=O)c1ccc(NC(=O)/C=C/c2cccnc2)cc1 [(2E)-N-{4-[(2-methoxybenzene)sulfonyl]phenyl}-3-(pyridin-3-yl)prop-2-enamide] | 0.0077 | 0.0241 | – | – |
| Cc1ccccc1S(=O)(=O)c1ccc(NC(=O)/C=C/c2cccnc2)cc1 [(2E)-N-{4-[(2-methylbenzene)sulfonyl]phenyl}-3-(pyridin-3-yl)prop-2-enamide] | 0.0333 | 0.1 to 1 | – | – |
| O=C(/C=C/c1cccnc1)Nc1ccc(S(=O)(=O)c2ccc(Cl)c(Cl)c2)cc1 [(2E)-N-{4-[(3,4-dichlorobenzene)sulfonyl]phenyl}-3-(pyridin-3-yl)prop-2-enamide] | 0.0729 | 0.1 to 1 | – | – |
| COc1ccc(S(=O)(=O)c2ccc(NC(=O)/C=C/c3cccnc3)cc2)cc1OC [(2E)-N-{4-[(3,4-dimethoxybenzene)sulfonyl]phenyl}-3-(pyridin-3-yl)prop-2-enamide] | 0.0025 | 0.0436 | – | – |
| O=C(/C=C/c1cccnc1)Nc1ccc(S(=O)(=O)c2cc(Cl)cc(Cl)c2)cc1 [(2E)-N-{4-[(3,5-dichlorobenzene)sulfonyl]phenyl}-3-(pyridin-] [(2E)-N-{4-[(3,5-dichlorobenzene)sulfonyl]phenyl}-3-(pyridin-3-yl)prop-2-enamide] | 0.0505 | – | 0.186 | – |
| COc1cc(OC)cc(S(=O)(=O)c2ccc(NC(=O)/C=C/c3cccnc3)cc2)c1 [(2E)-N-{4-[(3,5-dimethoxybenzene)sulfonyl]phenyl}-3-(pyridin-3-yl)prop-2-enamide] | 0.0203 | 0.0443 | – | – |
| Cc1cc(C)cc(S(=O)(=O)c2ccc(NC(=O)/C=C/c3cccnc3)cc2)c1 [(2E)-N-{4-[(3,5-dimethylbenzene)sulfonyl]phenyl}-3-(pyridin-3-yl)prop-2-enamide] | 0.0171 | 0.0954 | – | – |
| COc1ccc(S(=O)(=O)c2ccc(NC(=O)/C=C/c3cccnc3)cc2)cc1Cl [(2E)-N-{4-[(3-chloro-4-methoxybenzene)sulfonyl]phenyl}-3-(pyridin-3-yl)prop-2-enamide] | 0.0058 | 0.123 | – | – |
| Cc1ccc(S(=O)(=O)c2ccc(NC(=O)/C=C/c3cccnc3)cc2)cc1Cl [(2E)-N-{4-[(3-chloro-4-methylbenzene)sulfonyl]phenyl}-3-(pyridin-3-yl)prop-2-enamide] | 0.0086 | 0.199 | – | – |
| CCCOc1ccc(S(=O)(=O)c2ccc(NC(=O)/C=C/c3cccnc3)cc2)cc1Cl [(2E)-N-{4-[(3-chloro-4-propoxybenzene)sulfonyl]phenyl}-3-(pyridin-3-yl)prop-2-enamide] | 0.0056 | 0.1 to 1 | – | – |
| O=C(/C=C/c1cccnc1)Nc1ccc(S(=O)(=O)c2cc(F)cc(Cl)c2)cc1 [(2E)-N-{4-[(3-chloro-5-fluorobenzene)sulfonyl]phenyl}-3-(pyridin-3-yl)prop-2-enamide] | 0.124 | 0.179 | – | – |
| COc1cc(Cl)cc(S(=O)(=O)c2ccc(NC(=O)/C=C/c3cccnc3)cc2)c1 [(2E)-N-{4-[(3-chloro-5-methoxybenzene)sulfonyl]phenyl}-3-(pyridin-3-yl)prop-2-enamide] | 0.022 | 0.1 | – | – |
| O=C(/C=C/c1cccnc1)Nc1ccc(S(=O)(=O)c2cccc(Cl)c2)cc1 [(2E)-N-{4-[(3-chlorobenzene)sulfonyl]phenyl}-3-(pyridin-3-yl)prop-2-enamide] | 0.122 | – | – | 0.182 |
| CCS(=O)(=O)Nc1cccc(S(=O)(=O)c2ccc(NC(=O)/C=C/c3cccnc3)cc2)c1 [(2E)-N-{4-[(3-ethanesulfonamidobenzene)sulfonyl]phenyl}-3-(pyridin-3-yl)prop-2-enamide] | 0.0081 | 0.1 to 1 | – | – |
| CCOc1cccc(S(=O)(=O)c2ccc(NC(=O)/C=C/c3cccnc3)cc2)c1 [(2E)-N-{4-[(3-ethoxybenzene)sulfonyl]phenyl}-3-(pyridin-3-yl)prop-2-enamide] | 0.0572 | 0.0919 | – | – |
| CCc1cccc(S(=O)(=O)c2ccc(NC(=O)/C=C/c3cccnc3)cc2)c1 [(2E)-N-{4-[(3-ethylbenzene)sulfonyl]phenyl}-3-(pyridin-3-yl)prop-2-enamide] | 0.0033 | 0.0305 | – | – |
| COc1ccc(S(=O)(=O)c2ccc(NC(=O)/C=C/c3cccnc3)cc2)cc1F [(2E)-N-{4-[(3-fluoro-4-methoxybenzene)sulfonyl]phenyl}-3-(pyridin-3-yl)prop-2-enamide] | 0.0115 | 0.103 | – | – |
| Cc1ccc(S(=O)(=O)c2ccc(NC(=O)/C=C/c3cccnc3)cc2)cc1F [(2E)-N-{4-[(3-fluoro-4-methylbenzene)sulfonyl]phenyl}-3-(pyridin-3-yl)prop-2-enamide] | 0.0276 | 0.196 | – | – |
| CCCOc1ccc(S(=O)(=O)c2ccc(NC(=O)/C=C/c3cccnc3)cc2)cc1F [(2E)-N-{4-[(3-fluoro-4-propoxybenzene)sulfonyl]phenyl}-3-(pyridin-3-yl)prop-2-enamide] | 0.0409 | 0.1 to 1 | – | – |
| COc1cc(F)cc(S(=O)(=O)c2ccc(NC(=O)/C=C/c3cccnc3)cc2)c1 [(2E)-N-{4-[(3-fluoro-5-methoxybenzene)sulfonyl]phenyl}-3-(pyridin-3-yl)prop-2-enamide] | 0.0032 | 0.0681 | – | – |
